In patent US8933224B2, “Triazine derivatives” (Pfizer Inc., priority 2013, dated 2015):

target: rat PDE10 enzyme (Rattus norvegicus (Rat), UniProt Q9QYJ6); test: PDE10 scintillation proximity assay (SPA), inhibition of rat PDE10 enzyme activity; format: biochemical; conditions: geometric mean of 2-4 determinations unless otherwise indicated (b: ≧5 determinations; c: single determination)
Description: PDE10 activity was measured using a scintillation assay (SPA-based method) similar to that previously described by Seeger, T. F. et al., Brain Research 985 (2003) 113-126. The compounds' relative activity as PDE10 inhibitors was investigated by assaying a fixed amount of enzyme in the presence of the test compound and low substrate concentration (cAMP) such that an IC50 could be determined. […] The assay is performed in a 384-well format with 50 μL assay buffer (50 mM TRIS pH 7.5; 1.3 mM MgCl2; 0.01% Brij) containing enough PDE10 to convert ˜20% of 20 nM ^3H-cAMP, and a range of inhibitors. Reactions are incubated for 30 minutes at 25° C. The addition of 20 μL of 8 mg/ml yttrium silicate SPA beads (PerkinElmer) stops the reaction. The plates are sealed (TopSeal, PerkinElmer) and the beads are allowed to settle for 8 hrs, after which they are read on the Trilux Microbeta overnight. ^1Rat enzyme preparation:^2Human enzyme preparation:
The recombinant Bacmid was isolated and used to transfect sf9 insect cells to generate a viral stock. To generate cell paste for purification, sf21 cells were infected with the virus stock and cells were harvested 72 hours after infection as described in Seeger, T. F. et al., Brain Research 985 (2003) 113-126. Insect cell paste was lysed and after centrifugation, the supernatant was chromatographed on Ni-NTA agarose (Qiagen) followed by Mono Q (GE Healthcare Life Sciences) as described in Seeger, T. F. et al., Brain Research 985 (2003) 113-126.

Sequence of rat PDE10 enzyme (Q9QYJ6 24-794): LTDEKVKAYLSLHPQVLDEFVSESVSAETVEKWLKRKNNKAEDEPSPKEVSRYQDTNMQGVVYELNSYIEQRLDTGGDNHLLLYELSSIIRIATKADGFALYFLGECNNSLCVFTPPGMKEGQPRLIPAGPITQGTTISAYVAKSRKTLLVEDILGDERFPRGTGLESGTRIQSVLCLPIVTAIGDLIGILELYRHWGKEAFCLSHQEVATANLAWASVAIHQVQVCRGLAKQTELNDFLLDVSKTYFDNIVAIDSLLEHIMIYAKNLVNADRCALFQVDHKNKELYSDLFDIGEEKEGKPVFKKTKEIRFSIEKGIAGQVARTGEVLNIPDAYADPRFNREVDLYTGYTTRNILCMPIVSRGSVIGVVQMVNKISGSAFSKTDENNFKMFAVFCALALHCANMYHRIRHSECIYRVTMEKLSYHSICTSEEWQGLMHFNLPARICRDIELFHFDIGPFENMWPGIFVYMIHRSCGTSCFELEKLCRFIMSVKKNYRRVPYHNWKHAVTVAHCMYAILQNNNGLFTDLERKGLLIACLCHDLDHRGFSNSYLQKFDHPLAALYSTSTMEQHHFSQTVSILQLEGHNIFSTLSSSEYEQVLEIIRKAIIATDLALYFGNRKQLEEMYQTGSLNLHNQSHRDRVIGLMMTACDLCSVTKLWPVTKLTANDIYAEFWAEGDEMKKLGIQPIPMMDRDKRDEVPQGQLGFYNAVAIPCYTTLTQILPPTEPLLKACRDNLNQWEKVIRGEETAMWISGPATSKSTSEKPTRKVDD

| SMILES | IC50 [nM] |
| --- | --- |
| Cc1nc(C2CCOCC2)c2c(N3CCc4nc(C5CC5)ncc4C3)ncnn12 [Example 61, 2-cyclopropyl-6-[7-methyl-5-(tetrahydro-2H-pyran-4-yl)imidazo[5,1-f][1,2,4]triazin-4-yl]-5,6,7,8-tetrahydropyrido[4,3-d]pyrimidine] | < 3.52 |
| COc1cc2c(cc1OC)CN(c1ncnn3c(C)nc(-c4ccccc4C)c13)CC2 [Example 62, 6,7-dimethoxy-2-[7-methyl-5-(2-methylphenyl)imidazo[5,1-f][1,2,4]triazin-4-yl]-1,2,3,4-tetrahydroisoquinoline] | 3.87 |
| Cc1nc([C@H]2CCOC2)c2c(N3CCc4ncncc4C3)ncnn12 [Example 63, 6-{7-methyl-5-[(3R)-tetrahydrofuran-3-yl]imidazo[5,1-f][1,2,4]triazin-4-yl}-5,6,7,8-tetrahydropyrido[4,3-d]pyrimidine] | 133 |
| COc1cc2c(cc1OC)CN(c1ncnn3c(C)nc(CC(C)C)c13)CC2 [Example 64, 2-(5-isobutyl-7-methylimidazo[5,1-f][1,2,4]triazin-4-yl)-6,7-dimethoxy-1,2,3,4-tetrahydroisoquinoline] | 1.18 |
| Cc1nc(-c2ccccc2F)c2c(N3CCc4cccnc4C3)ncnn12 [Example 65] | 2.98 |
| COc1ccc2c(n1)CCN(c1ncnn3c(C)nc(-c4ccccc4F)c13)C2 [Example 66, 6-[5-(2-fluorophenyl)-7-methylimidazo[5,1-f][1,2,4]triazin-4-yl]-2-methoxy-5,6,7,8-tetrahydro-1,6-naphthyridine] | 2.6 |
| Cc1nc(-c2ccccc2F)c2c(N3CCc4nc(N(C)C)ccc4C3)ncnn12 [Example 67, 6-[5-(2-fluorophenyl)-7-methylimidazo[5,1-f][1,2,4]triazin-4-yl]-N,N-dimethyl-5,6,7,8-tetrahydro-1,6-naphthyridin-2-amine] | 0.325 |
| COc1nccc2c1CN(c1ncnn3c(C)nc(-c4ccccc4F)c13)CC2 [Example 68, 2-[5-(2-fluorophenyl)-7-methylimidazo[5,1-f][1,2,4]triazin-4-yl]-8-methoxy-1,2,3,4-tetrahydro-2,7-naphthyridine] | 0.895 |
| COc1ccc2c(n1)CN(c1ncnn3c(C)nc(-c4ccccc4F)c13)CC2 [Example 69, 7-[5-(2-fluorophenyl)-7-methylimidazo[5,1-f][1,2,4]triazin-4-yl]-2-methoxy-5,6,7,8-tetrahydro-1,7-naphthyridine] | 7.3 |
| Cc1ccc2c(n1)CN(c1ncnn3c(C)nc(-c4ccccc4F)c13)CC2 [Example 73, 7-[5-(2-fluorophenyl)-7-methylimidazo[5,1-f][1,2,4]triazin-4-yl]-2-methyl-5,6,7,8-tetrahydro-1,7-naphthyridine] | 6.81 |
| Cc1nc2c(o1)CN(c1ncnn3c(C)nc([C@H]4CCOC4)c13)CC2 [Example 76, 7-methyl-4-(2-methyl-6,7-dihydro[1,3]oxazolo[5,4-c]pyridin-5(4H)-yl)-5-[(3R)-tetrahydrofuran-3-yl]imidazo[5,1-f][1,2,4]triazine] | 22.9 |
| COc1cc2c(cc1OC)CN(c1ncnn3c(C)nc(C4CCCO4)c13)CC2 (stereo not shown) [Example 77, 6,7-dimethoxy-2-[7-methyl-5-(tetrahydrofuran-2-yl)imidazo[5,1-f][1,2,4]triazin-4-yl]-1,2,3,4-tetrahydroisoquinoline] | 30 |
| Cc1nc([C@H]2CCCO2)c2c(N3CCc4noc(C5CC5)c4C3)ncnn12 [Example 78, 4-(3-cyclopropyl-6,7-dihydro[1,2]oxazolo[4,3-c]pyridin-5(4H)-yl)-7-methyl-5-[(2R)-tetrahydrofuran-2-yl]imidazo[5,1-f][1,2,4]triazine] | 3.89 |
| Cc1nc([C@H]2CCCO2)c2c(N3CCc4nc(C5CC5)ncc4C3)ncnn12 [Example 79] | 11.2 |
| CCc1nn(C)c2c1CN(c1ncnn3c(C)nc([C@H]4CCCO4)c13)CC2 [Example 80, 4-(3-ethyl-1-methyl-1,4,6,7-tetrahydro-5H-pyrazolo[4,3-c]pyridin-5-yl)-7-methyl-5-[(2R)-tetrahydrofuran-2-yl]imidazo[5,1-f][1,2,4]triazine] | 17.6 |
| Cc1nc2c(s1)CN(c1ncnn3c(C)nc([C@H]4CCCO4)c13)CC2 [Example 81] | 9.73 |
| COc1cc2c(cc1OC)CN(c1ncnn3c(C)nc([C@H]4CCCO4)c13)CC2 [Example 82, 6,7-dimethoxy-2-{7-methyl-5-[(2R)-tetrahydrofuran-2-yl]imidazo[5,1-f][1,2,4]triazin-4-yl}-1,2,3,4-tetrahydroisoquinoline] | 37.2 |
| COc1cc2c(cc1OC)CN(c1ncnn3c(C)nc([C@@H]4CCCO4)c13)CC2 [Example 83, 6,7-dimethoxy-2-{7-methyl-5-[(2S)-tetrahydrofuran-2-yl]imidazo[5,1-f][1,2,4]triazin-4-yl}-1,2,3,4-tetrahydroisoquinoline] | 29.7 |
| Cc1nn(C)c2c1CN(c1ncnn3c(C)nc([C@H]4CCOC4)c13)CC2 [Example 84, 4-(1,3-dimethyl-1,4,6,7-tetrahydro-5H-pyrazolo[4,3-c]pyridin-5-yl)-7-methyl-5-[(3R)-tetrahydrofuran-3-yl]imidazo[5,1-f][1,2,4]triazine] | 8.1 |
| COc1ccc2c(c1)CCN(c1ncnn3c(C)nc([C@H]4CCOC4)c13)C2 [Example 87, 6-methoxy-2-{7-methyl-5-[(3R)-tetrahydrofuran-3-yl]imidazo[5,1-f][1,2,4]triazin-4-yl}-1,2,3,4-tetrahydroisoquinoline] | 1.26 |
| Cc1nc([C@@H]2CCOC2)c2c(N3CCc4nc(C5CC5)nc(C(F)(F)F)c4C3)ncnn12 [Example 89, 2-cyclopropyl-6-{7-methyl-5-[(3S)-tetrahydrofuran-3-yl]imidazo[5,1-f][1,2,4]triazin-4-yl}-4-(trifluoromethyl)-5,6,7,8-tetrahydropyrido[4,3-d]pyrimidine] | 0.561 |
| Cc1nn(C)c2c1CN(c1ncnn3c(C)nc([C@@H]4CCOC4)c13)CC2 [Example 93, 4-(1,3-dimethyl-1,4,6,7-tetrahydro-5H-pyrazolo[4,3-c]pyridin-5-yl)-7-methyl-5-[(3S)-tetrahydrofuran-3-yl]imidazo[5,1-f][1,2,4]triazine] | 0.761 |

The next lines start with the values.

| IC50 [nM] | SMILES |
| --- | --- |
| 2.89 | Cc1nc(CC(C)C)c2c(N3CCc4noc(C5CC5)c4C3)ncnn12 [Example 94, 4-(3-cyclopropyl-6,7-dihydro[1,2]oxazolo[4,3-c]pyridin-5(4H)-yl)-7-methyl-5-(2-methylpropyl)imidazo[5,1-f][1,2,4]triazine] |
| 9.05 | Cc1nc(CC(C)C)c2c(N3CCc4ncccc4C3)ncnn12 [Example 97, 6-[7-methyl-5-(2-methylpropyl)imidazo[5,1-f][1,2,4]triazin-4-yl]-5,6,7,8-tetrahydro-1,6-naphthyridine] |
| 11.6 | Cc1nc([C@H]2CCOC2)c2c(N3CCc4c(cnn4C4CC4)C3)ncnn12 [Example 98, 4-(1-cyclopropyl-1,4,6,7-tetrahydro-5H-pyrazolo[4,3-c]pyridin-5-yl)-7-methyl-5-[(3R)-tetrahydrofuran-3-yl]imidazo[5,1-f][1,2,4]triazine] |
| 6.52 | Cc1nc([C@H]2CCOC2)c2c(N3CCc4nn(C)cc4C3)ncnn12 [Example 99, 7-methyl-4-(2-methyl-2,4,6,7-tetrahydro-5H-pyrazolo[4,3-c]pyridin-5-yl)-5-[(3R)-tetrahydrofuran-3-yl]imidazo[5,1-f][1,2,4]triazine] |
| 23 | Cc1nc([C@H]2CCOC2)c2c(N3CCc4nn(C(C)C)cc4C3)ncnn12 [Example 100, 7-methyl-4-[2-(propan-2-yl)-2,4,6,7-tetrahydro-5H-pyrazolo[4,3-c]pyridin-5-yl]-5-[(3R)-tetrahydrofuran-3-yl]imidazo[5,1-f][1,2,4]triazine] |
| 0.283 | Cc1c2c(nn1C)CCN(c1ncnn3c(C)nc([C@@H]4CCOC4)c13)C2 [Example 101, 4-(2,3-dimethyl-2,4,6,7-tetrahydro-5H-pyrazolo[4,3-c]pyridin-5-yl)-7-methyl-5-[(3S)-tetrahydrofuran-3-yl]imidazo[5,1-f][1,2,4]triazine] |
| 3.94 | Cc1nc(C2CCOCC2)c2c(N3CCn4ncc(C(F)(F)F)c4C3)ncnn12 [Example 102, 7-methyl-5-(tetrahydro-2H-pyran-4-yl)-4-[3-(trifluoromethyl)-6,7-dihydropyrazolo[1,5-a]pyrazin-5(4H)-yl]imidazo[5,1-f][1,2,4]triazine] |
| 5.13 | Cc1nn(C)c2c1CN(c1ncnn3c(C)nc(C4CCOCC4)c13)CC2 [Example 103, 4-(1,3-dimethyl-1,4,6,7-tetrahydro-5H-pyrazolo[4,3-c]pyridin-5-yl)-7-methyl-5-(tetrahydro-2H-pyran-4-yl)imidazo[5,1-f][1,2,4]triazine] |
| 1.08 | Cc1nc(C2CCOCC2)c2c(N3CCc4nn(C)c(C(C)C)c4C3)ncnn12 [Example 104, 7-methyl-4[2-methyl-3-(propan-2-yl)-2,4,6,7-tetrahydro-5H-pyrazolo[4,3-c]pyridin-5-yl]-5-(tetrahydro-2H-pyran-4-yl)imidazo[5,1-f][1,2,4]triazine] |
